Experimental findings from patent publication US9999622B2, “Pyrazolothiazole compound and medicine comprising same” (NIPPON SHINYAKU CO., LTD., priority 2014, dated 2018) are described below.

One assay addresses T1, JAK1 (Homo sapiens, UniProt P23458).
T1 construct: purchased Carna Biosciences, Inc
The assay is described as follows: JAK tyrosine kinase inhibitory activity in the presence of 1 mM ATP (ELISA), JAK1. The format is biochemical. In a few lines:
(§1)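 Kinase reactions ran on streptavidin-coated plates in 15 mM Tris-HCl pH 7.5, 0.01% Tween-20, 1 mM DTT, 30 °C for 1 h. Enzyme was prediluted to 7.5 nM (JAK1) or 0.75 nM (JAK2, JAK3) before addition. Phosphotyrosine was detected with HRP anti-pTyr antibody and TMB at A450.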
(In general: An ELISA detects its analyte on a solid surface through an enzyme-linked reagent.)

A further assay concerns the target T2, JAK2 (Homo sapiens, UniProt O60674).
T2 construct: purchased Carna Biosciences, Inc
As to the kind of experiment: JAK tyrosine kinase inhibitory activity in the presence of 1 mM ATP (ELISA), JAK2. It counts as biochemical. In outline:
as §1

A further assay deals with T3, JAK3 (Homo sapiens, UniProt P52333).
T3 construct: purchased Carna Biosciences, Inc
T3 sequence (P52333 1-1124): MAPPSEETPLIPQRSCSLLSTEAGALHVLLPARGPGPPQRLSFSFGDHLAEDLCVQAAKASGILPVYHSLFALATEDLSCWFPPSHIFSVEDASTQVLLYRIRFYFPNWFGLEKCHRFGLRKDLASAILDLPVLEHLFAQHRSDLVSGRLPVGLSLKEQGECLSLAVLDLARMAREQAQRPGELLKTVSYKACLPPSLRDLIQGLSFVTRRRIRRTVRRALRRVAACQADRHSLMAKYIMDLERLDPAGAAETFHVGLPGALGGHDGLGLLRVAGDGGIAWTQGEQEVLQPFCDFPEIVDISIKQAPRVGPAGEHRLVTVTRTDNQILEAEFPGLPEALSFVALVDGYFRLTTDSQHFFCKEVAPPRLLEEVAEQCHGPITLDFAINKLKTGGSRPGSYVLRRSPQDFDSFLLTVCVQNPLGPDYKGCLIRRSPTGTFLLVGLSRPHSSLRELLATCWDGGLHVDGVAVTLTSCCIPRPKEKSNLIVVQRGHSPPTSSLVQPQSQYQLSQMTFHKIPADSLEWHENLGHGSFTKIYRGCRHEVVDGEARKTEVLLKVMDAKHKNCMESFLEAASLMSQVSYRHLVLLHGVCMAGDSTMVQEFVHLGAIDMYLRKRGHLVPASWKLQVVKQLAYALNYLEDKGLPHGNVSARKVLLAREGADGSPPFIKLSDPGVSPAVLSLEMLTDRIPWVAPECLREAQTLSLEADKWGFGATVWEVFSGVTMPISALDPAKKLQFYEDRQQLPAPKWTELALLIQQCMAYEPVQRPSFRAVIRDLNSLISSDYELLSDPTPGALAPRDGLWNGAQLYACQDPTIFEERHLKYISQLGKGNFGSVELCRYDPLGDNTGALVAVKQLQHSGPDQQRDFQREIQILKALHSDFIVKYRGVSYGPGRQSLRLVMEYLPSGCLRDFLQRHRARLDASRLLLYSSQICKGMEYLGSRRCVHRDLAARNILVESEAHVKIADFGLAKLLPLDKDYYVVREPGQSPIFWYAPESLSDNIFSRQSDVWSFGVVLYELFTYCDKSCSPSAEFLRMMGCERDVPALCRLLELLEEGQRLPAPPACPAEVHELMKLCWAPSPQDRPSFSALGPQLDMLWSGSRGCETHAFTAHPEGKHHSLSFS
The assay is described as follows: JAK tyrosine kinase inhibitory activity in the presence of 1 mM ATP (ELISA), JAK3. The format is biochemical. In outline:
as §1

Assay [1] concerns Aspergillus-induced airway inflammation model. The assay is described as follows: Inhibitory effect on Aspergillus-induced airway inflammation model. The format is in vivo. The note with it: mice; for inhibition in vivo at 10000 µg/mL, 100 mg/kg: Mus musculus, Eosinophil, po, 240 h, 10 mg/mL suspension at 10 mL/kg twice a day Day 0 to Day 9, BALF collected at Day 10, read-out: Inhibition rate on count of invasive eosinophil in BALF (%). On the procedure: Aspergillus fumigatus extracts (Greer laboratories, Inc.) were adjusted to 400 μg/mL with PBS. The Aspergillus fumigatus solutions thus prepared were administered to mice as nasal drops (50 μL) on Day 0, Day 1, Day 7 and Day 8. The nasal drop was administered one hour after the administration of test compounds in the morning. The test compound was administered twice a day in the morning and evening of Day 0 to Day 9. The test compound was suspended in 0.5% methylcellulose at 10 mg/mL, and orally administered at the dosage of 10 mL/kg. The bronchoalveolar lavage fluid (BALF) was collected at Day 10, and the total white blood cell count in BALF was measured using Celltac (NIHON KOHDEN). The ratio of eosinophil in total white blood cell was calculated using ADVIA 120 (Siemens Healthcare Diagnostics), and the ratio was multiplied by the total white blood cell count to determine the eosinophil count in BALF. The inhibition rate of the test compound was determined, assuming the inhibitory ratio in the treatment with Aspergillus fumigatus extract and 0.5% methylcellulose as 0% and the inhibitory ratio in the treatment without Aspergillus fumigatus extract but with 0.5% methylcellulose as 100%.

Counter-ions that a name gives are not always drawn.

T1 sequence (P23458 whole entry): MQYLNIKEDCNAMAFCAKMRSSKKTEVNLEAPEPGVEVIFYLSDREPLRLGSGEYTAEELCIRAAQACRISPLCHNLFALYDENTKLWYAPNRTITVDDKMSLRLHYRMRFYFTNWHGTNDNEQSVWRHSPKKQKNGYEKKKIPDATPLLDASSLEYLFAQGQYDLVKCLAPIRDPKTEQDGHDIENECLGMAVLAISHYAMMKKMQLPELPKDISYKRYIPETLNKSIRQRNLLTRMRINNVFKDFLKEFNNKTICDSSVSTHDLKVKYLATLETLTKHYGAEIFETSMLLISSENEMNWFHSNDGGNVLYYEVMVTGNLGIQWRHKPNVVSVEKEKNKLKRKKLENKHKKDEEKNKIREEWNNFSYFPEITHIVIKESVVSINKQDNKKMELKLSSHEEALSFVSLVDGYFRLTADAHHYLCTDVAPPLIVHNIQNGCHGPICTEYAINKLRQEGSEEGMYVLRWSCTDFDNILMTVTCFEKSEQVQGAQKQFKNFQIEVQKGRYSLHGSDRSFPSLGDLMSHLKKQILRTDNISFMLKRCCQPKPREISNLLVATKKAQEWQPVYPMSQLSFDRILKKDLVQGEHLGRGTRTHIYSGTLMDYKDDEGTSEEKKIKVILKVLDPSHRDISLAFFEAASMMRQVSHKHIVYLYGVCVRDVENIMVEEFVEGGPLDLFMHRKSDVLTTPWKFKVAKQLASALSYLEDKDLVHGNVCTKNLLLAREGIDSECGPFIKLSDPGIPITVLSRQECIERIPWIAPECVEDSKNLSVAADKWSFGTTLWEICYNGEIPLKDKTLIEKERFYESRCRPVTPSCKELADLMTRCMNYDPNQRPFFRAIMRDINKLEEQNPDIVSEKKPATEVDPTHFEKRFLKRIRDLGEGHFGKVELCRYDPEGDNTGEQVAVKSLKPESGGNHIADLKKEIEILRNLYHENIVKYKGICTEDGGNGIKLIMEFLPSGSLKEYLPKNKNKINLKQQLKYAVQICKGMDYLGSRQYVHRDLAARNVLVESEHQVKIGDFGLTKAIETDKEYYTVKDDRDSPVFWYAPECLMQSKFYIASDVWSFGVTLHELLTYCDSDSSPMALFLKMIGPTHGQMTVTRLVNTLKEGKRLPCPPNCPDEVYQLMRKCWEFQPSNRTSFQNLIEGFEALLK
T2 sequence (O60674 whole entry): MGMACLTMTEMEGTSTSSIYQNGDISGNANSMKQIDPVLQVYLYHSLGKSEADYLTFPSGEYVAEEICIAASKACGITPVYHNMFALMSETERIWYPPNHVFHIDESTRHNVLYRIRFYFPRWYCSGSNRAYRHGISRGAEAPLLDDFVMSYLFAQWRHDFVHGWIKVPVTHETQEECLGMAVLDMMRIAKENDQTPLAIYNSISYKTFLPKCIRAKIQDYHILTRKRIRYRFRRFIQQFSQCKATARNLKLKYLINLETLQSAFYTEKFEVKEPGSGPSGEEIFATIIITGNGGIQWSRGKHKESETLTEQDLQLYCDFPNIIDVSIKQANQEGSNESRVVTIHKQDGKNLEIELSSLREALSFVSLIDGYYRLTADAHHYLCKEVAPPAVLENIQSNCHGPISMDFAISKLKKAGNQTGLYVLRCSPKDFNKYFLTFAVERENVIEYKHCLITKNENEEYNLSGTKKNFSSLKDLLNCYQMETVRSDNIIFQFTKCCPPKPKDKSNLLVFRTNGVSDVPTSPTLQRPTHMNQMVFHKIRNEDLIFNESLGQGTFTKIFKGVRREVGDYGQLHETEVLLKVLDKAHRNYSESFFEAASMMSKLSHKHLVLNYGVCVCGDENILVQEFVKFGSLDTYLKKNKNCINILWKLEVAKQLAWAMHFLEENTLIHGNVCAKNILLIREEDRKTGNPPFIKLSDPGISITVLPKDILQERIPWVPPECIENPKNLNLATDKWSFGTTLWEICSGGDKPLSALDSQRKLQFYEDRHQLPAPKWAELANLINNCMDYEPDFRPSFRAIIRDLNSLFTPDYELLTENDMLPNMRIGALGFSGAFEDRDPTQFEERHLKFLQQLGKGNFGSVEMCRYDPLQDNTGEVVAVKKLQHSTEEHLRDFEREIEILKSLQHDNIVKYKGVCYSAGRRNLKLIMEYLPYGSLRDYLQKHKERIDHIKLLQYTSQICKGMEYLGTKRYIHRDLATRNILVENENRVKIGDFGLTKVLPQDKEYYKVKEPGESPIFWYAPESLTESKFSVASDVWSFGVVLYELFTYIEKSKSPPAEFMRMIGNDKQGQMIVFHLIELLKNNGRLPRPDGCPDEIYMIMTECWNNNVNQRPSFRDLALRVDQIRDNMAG

On to `CCOC(=O)NC1CCN(C(=O)c2cc(N[C@H](C)C3CC3)nc(-c3cnn4ccsc34)n2)CC1` [Example 74, Ethyl (1-{[6-{[(1R)-1-cycloproropylethyl]amino}-2-(pyrazolo[5,1-b][1,3]thiazol-7-yl)pyrimidin-4-yl]carbonyl}piperidin-4-yl)carbamate hydrochloride], for which the half-maximal inhibitory concentration (IC50) at JAK1 stood at 95 nM; at JAK2, 3100 nM; on JAK3, 2600 nM. Besides, the “Inhibition rate on count of invasive eosinophil in BALF (%)” value in assay [1] (oral, 10 mg/mL suspension at 10 mL/kg twice a day Day 0 to Day 9, BALF collected at Day 10, hydrochloride) is 34%.
Turning to `C[C@H](Nc1cc(C(=O)N2CCC(NC(=O)OC(C)(C)CF)CC2)nc(-c2cnn3ccsc23)n1)C1CC1` [Example 21, 1-Fluoro-2-methylpropan-2-yl (1-{[6-{[(1S)-1-cyclopropylethyl]amino}-2-(pyrazolo[5,1-b][1,3]thiazol-7-yl)pyrimidin-4-yl]carbonyl}piperidin-4-yl)carbamate hydrochloride], the IC50 was 230 nM at JAK1, 2200 nM on JAK2 and more than 10000 nM at JAK3. In addition, the inhibition in vivo at 10000 µg/mL, 100 mg/kg in assay [1] was 47%.
In the case of `C[C@@H](Nc1cc(C(=O)N2CCC(O)CC2)nc(-c2cnn3ccsc23)n1)C(C)(C)C` [Example 62, [6-{[(2R)-3,3-Dimethylbutan-2-yl]amino}-2-(pyrazolo[5,1-b][1,3]thiazol-7-yl)pyrimidin 4 yl](4-hydroxypiperidin-1-yl)methanone hydrochloride], the IC50 at JAK1 worked out at 10 nM; on JAK2 it was 1000 nM; on JAK3 it was 1100 nM. The inhibition in vivo at 10000 µg/mL, 100 mg/kg in assay [1] turned out to be 36%.
With `CC[C@@H](C)Nc1cc(C(=O)N2CCC(NC(=O)OC)CC2)nc(-c2cnn3ccsc23)n1` [Example 126, Methyl [1-({6-[(2R)-butan-2-ylamino]-2-(pyrazolo[5,1-b][1,3]thiazol-7-yl)pyrimidin-4-yl}carbonyl)piperidin-4-yl]carbamate], the IC50 on JAK1 is 820 nM; on JAK2 it was more than 10000 nM; on JAK3, more than 10000 nM. Also, the inhibition in vivo at 10000 µg/mL, 100 mg/kg in assay [1] was 57%.
For the compound `C[C@H](Nc1cc(C(=O)N2CCC(O)CC2)nc(-c2cnn3ccsc23)n1)C1CC1` [Example 20, [6-{[(1S)-1-Cyclopropylethyl]amino}-2-(pyrazolo[5,1-b][1,3]thiazol-7-yl)pyrimidin-4-yl](4-hydroxypiperidin-1-yl)methanone hydrochloride], the results for the IC50 at JAK1, at JAK2 and on JAK3 were 1400 nM, 4700 nM and 4200 nM, respectively. The inhibition in vivo at 10000 µg/mL, 100 mg/kg in assay [1] came out at 61%.
Consider `CC(C)OC(=O)NC1CCN(C(=O)c2cc(N[C@@H](C)C3CC3)nc(-c3cnn4ccsc34)n2)CC1` [Example 41, Propan-2-yl (1-{[6-{[(1S)-1-cyclopropylethyl]amino}-2-(pyrazolo[5,1-b][1,3]thiazol-7-yl)pyrimidin-4-yl]carbonyl}piperidin-4-yl)carbamate], for which the IC50 on JAK1 was 96 nM; at JAK2, 2700 nM; at JAK3 it was more than 10000 nM. Also, the inhibition in vivo at 10000 µg/mL, 100 mg/kg in assay [1] is 51%.
Regarding `CCC(CC)Nc1cc(C(=O)N2CCC(O)CC2)nc(-c2cnn3ccsc23)n1` [Example 81, (4-Hydroxypiperidin-1-yl) [6-(pentan-3-ylamino)-2-(pyrazolo[5,1-b][1,3]thiazol-7-yl)pyrimidin-4-yl]methanone hydrochloride], the values for the IC50 at JAK1, on JAK2 and at JAK3 were 1600 nM, 2200 nM and 3300 nM, respectively. Besides, in assay [1], the inhibition in vivo at 10000 µg/mL, 100 mg/kg was determined as 43%.
Consider `C[C@H](Nc1cc(C(=O)N2CCC(O)CC2)nc(-c2cnn3ccsc23)n1)C(C)(C)C` [Example 23, [6-{[(2S)-3,3-Dimethylbutan-2-yl]amino}-2-(pyrazolo[5,1-b][1,3]thiazol-7-yl)pyrimidin-4-yl](4-hydroxypiperidin-1-yl)methanone], for which the IC50 at JAK1 was 860 nM; at JAK2, 870 nM; on JAK3, 3300 nM. For the same compound, in assay [1], the inhibition in vivo at 10000 µg/mL, 100 mg/kg came out at 31%.
In the case of `C[C@@H](C1CC1)N(C)c1cc(C(=O)N2CCC(NC(=O)C3CC3)CC2)nc(-c2cnn3ccsc23)n1` [Example 33, N-(1-{[6-{[(1S)-1-Cyclopropylethyl](methyl)amino}-2-(pyrazolo[5,1-b][1,3]thiazol-7-yl)pyrimidin-4-yl]carbonyl}piperidin-4-yl)cyclopropanecarboxamide hydrochloride], the IC50 on JAK1 was determined as 130 nM; at JAK2, 1700 nM; at JAK3, 1700 nM. For the same compound, the inhibition in vivo at 10000 µg/mL, 100 mg/kg in assay [1] stood at 37%.
In the case of `C[C@@H](Nc1cc(C(=O)N2CCC(NC(=O)OCC(F)F)CC2)nc(-c2cnn3ccsc23)n1)C1CC1` [Example 96, 2,2-Difluoroethyl (1-{[6-{[(1R)-1-cyclopropylethyl]amino}-2-(pyrazolo[5,1-b][1,3]thiazol-7-yl)pyrimidin-4-yl]carbonyl}piperidin-4-yl)carbamate hydrochloride], the IC50 was 250 nM at JAK1, 1000 nM at JAK2 and 2200 nM at JAK3. In assay [1], the inhibition in vivo at 10000 µg/mL, 100 mg/kg came to 51%.
In the same order, the values of `CC(C)(C)Nc1cc(C(=O)N2CCC(O)CC2)nc(-c2cnn3ccsc23)n1` [Example 58, [6-(tert-Butylamino)-2-(pyrazolo[5,1-b][1,3]thiazol-7-yl)pyrimidin-4-yl](4-hydroxypiperidin-1-yl)methanone] are 400 nM, 2900 nM, more than 10000 nM and 37%.
For `C[C@@H](Nc1cc(C(=O)N2CCC(NC(=O)C3CC3)CC2)nc(-c2cnn3ccsc23)n1)C(C)(C)C` [Example 16, N-(1-{[6-{[(2R)-3,3-Dimethylbutan-2-yl]amino}-2-(pyrazolo[5,1-b][1,3]thiazol-7-yl)pyrimidin-4-yl]carbonyl}piperidin-4-yl)cyclopropanecarboxamide], the IC50 at JAK1 came to 53 nM; at JAK2, 2200 nM; at JAK3 it was 2200 nM. Also, the inhibition in vivo at 10000 µg/mL, 100 mg/kg in assay [1] was 33%.
Take `COC(=O)NC1CCN(C(=O)c2cc(N[C@@H](C)C3CC3)nc(-c3cnn4ccsc34)n2)CC1` [Example 26, Methyl (1-{[6-{[(1S)-1-cycloproropylethyl]amino}-2-(pyrazolo[5,1-b][1,3]thiazol-7-yl)pyrimidin-4-yl]carbonyl}piperidin-4-yl)carbamate]: the values for the IC50 at JAK1, on JAK2 and at JAK3 were 75 nM, 2100 nM and 2100 nM, respectively. Further, in assay [1], the inhibition in vivo at 10000 µg/mL, 100 mg/kg was 58%.
Consider `C[C@@H](Nc1cc(C(=O)N2CCC(NC(=O)OCC(F)F)CC2)nc(-c2cnn3ccsc23)n1)C(C)(C)C` [Example 97, 2,2-Difluoroethyl (1-{[6-{[(2R)-3,3-dimethylbutan-2-yl]amino}-2-(pyrazolo[5,1-b][1,3]thiazol-7-yl)pyrimidin-4-yl]carbonyl}piperidin-4-yl)carbamate hydrochloride], for which the figures for the IC50 at JAK1, on JAK2 and on JAK3 were 210 nM, 1300 nM and 2700 nM, respectively. Besides, in assay [1], the inhibition in vivo at 10000 µg/mL, 100 mg/kg was found to be 43%.

For orientation: IC50 means the concentration that inhibits the measured activity by half.
